Assay results from patent US9828344B2, “Inhibitors of the notch signaling pathway and secretion for use in medicine” (Leibniz-Institut für Altersforschung Fritz-Lipmann-Institut …, priority 2012, dated 2017).
Peptide text beside a SMILES is read from it. * marks the point of attachment. Cbz = O=C(OCc1ccccc1)*; OtBu = CC(C)(C)O*

Columns and labels:
[1] = system: γ-secretase; assay: In vitro γ-secretase assay with isolated membranes; assay type: biochemical; conditions: 37° C.
Experimental: (§1) FIG. 3: Effect of compounds on NotchΔE-EGFP, APP and Klotho trafficking and processing. a) HEK293 stably expressing APPswe or Klotho (KI) were incubated with DAPT or compounds (10 μM) for 16 h. Media were collected, cells lysed and both assayed by Western blotting using indicated antibodies. m, mature; im, immature; s, shedded ectodomain; CTF, C-terminal fragment. b) Membranes from HeLa-NotchΔE-EGFP and APPswe cells were isolated and subjected to a γ-secretase in vitro assay in the presence of DAPT or compounds as indicated. NICD and AICD were detected by Western Blotting using antibodies against the C-terminus of APP (top) or antibodies specific for NICD (bottom). c) Quantitation from 5 independent experiments.
(§2) To test whether FLI-06 affected other membrane proteins, Klotho, a type I protein processed like APP and Notch^20, was analyzed. […] To analyze γ-secretase activity, in vitro assays using isolated membranes were performed (FIG. 3b, c). Production of NICD-EGFP and AICD (APP intracellular domain) were assayed. Both were produced in vitro at 37° C. but not at 4° C., and their production was inhibited by DAPT.
For assaying AICD formation, membranes of HEK293 cells stably expressing APP with the Swedish mutation were isolated and incubated for 4 h at 37° C. according to Sastre et al.^52. For assaying NICD formation, membranes from HeLa NotchΔE-EGFP cells were mixed with membranes from HeLa NotchΔE-EGFP cells that were pre-treated with 10 μM DAPT overnight to enrich substrate. After incubation samples were loaded onto either 8% SDS-PA gels (NICD) or 10-20% Tris-Tricine gels (AICD), blotted and probed with cleaved-Notch antibody or antibody 6687 against APP C-terminus^53. Chemoluminescence was quantified on a LAS-4000 (Fuji) with MultiGauge software.

[2] = biological target: T1, GBF1 (Homo sapiens, UniProt Q92538); assay: GBF1-GFP distribution in transfected HeLa cells; assay type: cell-based; conditions: FLI-06 10 μM, BFA 10 μg/ml, GCA 10 μM, 10 h
T1 construct: expressed in transfected cells; host or cells: HeLa (transient)
T1 sequence (Q92538 whole entry, species assumed): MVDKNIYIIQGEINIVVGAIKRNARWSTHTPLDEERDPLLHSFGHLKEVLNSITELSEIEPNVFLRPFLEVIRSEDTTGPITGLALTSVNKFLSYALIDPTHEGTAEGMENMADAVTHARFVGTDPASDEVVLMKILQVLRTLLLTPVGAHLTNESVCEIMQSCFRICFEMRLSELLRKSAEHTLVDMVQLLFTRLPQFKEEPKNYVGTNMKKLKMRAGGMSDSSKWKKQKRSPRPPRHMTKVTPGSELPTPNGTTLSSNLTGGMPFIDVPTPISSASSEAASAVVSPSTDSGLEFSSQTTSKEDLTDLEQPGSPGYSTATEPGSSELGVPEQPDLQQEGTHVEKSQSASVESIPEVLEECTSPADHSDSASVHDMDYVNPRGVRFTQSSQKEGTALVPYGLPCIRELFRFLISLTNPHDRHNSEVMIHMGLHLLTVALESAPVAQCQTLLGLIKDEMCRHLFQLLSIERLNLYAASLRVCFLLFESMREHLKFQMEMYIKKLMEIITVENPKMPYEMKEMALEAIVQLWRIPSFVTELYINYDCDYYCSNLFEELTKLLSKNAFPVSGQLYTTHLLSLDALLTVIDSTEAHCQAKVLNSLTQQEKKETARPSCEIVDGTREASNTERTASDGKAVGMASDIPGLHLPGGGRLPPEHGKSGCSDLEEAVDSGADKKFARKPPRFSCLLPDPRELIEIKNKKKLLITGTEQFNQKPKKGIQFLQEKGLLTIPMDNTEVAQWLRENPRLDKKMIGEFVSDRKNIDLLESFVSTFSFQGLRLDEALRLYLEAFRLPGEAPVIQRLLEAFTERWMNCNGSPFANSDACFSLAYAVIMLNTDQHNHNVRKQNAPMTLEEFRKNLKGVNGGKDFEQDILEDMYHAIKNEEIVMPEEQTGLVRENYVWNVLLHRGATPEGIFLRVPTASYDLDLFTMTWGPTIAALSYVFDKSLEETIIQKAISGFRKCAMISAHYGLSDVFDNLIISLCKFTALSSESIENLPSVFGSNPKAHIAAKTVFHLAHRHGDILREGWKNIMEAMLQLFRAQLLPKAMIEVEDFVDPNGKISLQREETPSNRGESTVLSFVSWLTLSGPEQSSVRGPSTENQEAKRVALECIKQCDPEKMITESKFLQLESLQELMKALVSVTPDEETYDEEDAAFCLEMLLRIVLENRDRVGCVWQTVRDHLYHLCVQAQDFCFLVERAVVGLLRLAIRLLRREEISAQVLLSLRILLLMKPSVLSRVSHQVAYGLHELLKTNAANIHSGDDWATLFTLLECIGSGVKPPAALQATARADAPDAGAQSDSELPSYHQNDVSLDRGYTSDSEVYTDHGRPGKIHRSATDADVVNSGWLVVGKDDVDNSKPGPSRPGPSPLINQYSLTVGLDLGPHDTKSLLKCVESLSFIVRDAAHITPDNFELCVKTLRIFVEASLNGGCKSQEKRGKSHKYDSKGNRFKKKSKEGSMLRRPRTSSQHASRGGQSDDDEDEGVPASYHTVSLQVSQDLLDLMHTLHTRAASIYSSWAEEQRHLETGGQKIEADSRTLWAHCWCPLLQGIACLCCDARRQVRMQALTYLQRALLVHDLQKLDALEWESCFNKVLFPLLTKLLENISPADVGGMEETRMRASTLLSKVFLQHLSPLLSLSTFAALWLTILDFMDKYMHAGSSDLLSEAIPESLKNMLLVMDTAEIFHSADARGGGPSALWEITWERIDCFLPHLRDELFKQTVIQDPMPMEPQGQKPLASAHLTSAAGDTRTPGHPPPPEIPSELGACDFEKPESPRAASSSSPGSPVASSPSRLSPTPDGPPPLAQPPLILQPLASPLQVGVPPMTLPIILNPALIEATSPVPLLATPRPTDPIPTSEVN

[3] = system: Klotho; assay: Klotho trafficking/processing in HEK293 cells stably expressing Klotho; assay type: cell-based; conditions: 10 μM, 16 h
Experimental: as §1, §2
(§3) APP, APPs, APPCTF and Aβ detection was as described before^54 using antibodies 22C11 for APP and APPs, 6687 for APPCTF and 3552 and 2D8 for Aβ. Klotho was detected as described in Bloch et al.^20. Chemoluminescence was quantified on a LAS-4000 (Fuji) with MultiGauge software.

[4] = system: microtubuli or actin; assay: Microtubule and actin integrity in HeLa cells; assay type: cell-based; conditions: 4 h
[5] = system: ER; assay: ER tubule-to-sheet live-cell imaging in COS cells (prlss-KDEL-mRFP); assay type: cell-based
Experimental: FIG. 7: FLI-06 induces ER sheet formation. A) COS cells transfected with prlss-KDEL-mRFP were incubated with 10 μM FLI-06 for indicated times and imaged by live-cell microscopy. The inserts are magnifications of the boxed areas. B) Images from cells treated as in A) were scored for the percentage of cells that lost most of their ER-tubules. For each time point 40-60 cells were counted. Data represent mean percentages, error bars SEM, n=3 independent experiments.
FIG. 16: Only ER exit inhibitors convert ER tubules to sheets. COS cells plated on LabTek chambered coverslips were transiently transfected with the ER-marker prlss-KDEL-mRFP, incubated the next day for 2 h with 10 iM of indicated compounds and imaged by live-cell microscopy. […] FLI-06+CHX, cells were additionally incubated in 40 iM cycloheximide. Nife, nifedipine; nimo, nimodipine. Numbers refer to numbering in FIG. 5a.
We noted a morphological change of the ER upon FLI-06 incubation that was difficult to capture in fixed cells. Live-cell imaging was therefore performed in COS cells transfected with the ER marker prlss-KDEL-mRFP (supp. Ref 3) and FLI-06 was added for 120 min (FIG. 7a). After 120 min almost all cells had no detectable ER-tubules anymore and instead were filled with large sheet-like structures. […] To test whether the morphological change is related to the inhibition of ER exit, next our set of FLI-06 derivatives was tested. […] Rather, the ER-sheets are indicative for structural changes, maybe initiated within ERES, that inhibit ER exit.

[6] = system: APP; assay: APP processing in HEK293 cells stably expressing APPswe; assay type: cell-based; conditions: 10 μM, 16 h
Experimental: as §1
To test if the compounds that affected NotchΔE-EGFP processing also affected APP processing, HEK293 cells were used that stably expressed APPswe, a mutated APP that yields robust amounts of Aβ^18. […] All other compounds had no effect on APPCTF or Aβ.
as §3

[7] = system: SEAP; assay: Secreted alkaline phosphatase (SEAP) assay in HeLa cells; assay type: cell-based; conditions: medium measured via photometry
Experimental: (§4) FIG. 18: FLI-06 inhibits secretion of secreted alkaline phosphates; FLI-06 kills cancerous, Notch dependent T-cells. a) The secreted alkaline phosphatase (SEAP) assay was carried out. Medium was collected and SEAP secretion was measured via photometry. […] The cells were grown in suspension with the indicated amounts of FLI-06 or DMSO control and growth was determined via FACS analysis.
In order to confirm the inhibitory effect of FLI-06 on secretion we transfected HeLa cells with a plasmid encoding a secreted alkaline phosphatase (SEAP).

[8] = system: YFP-GPI; assay: Surface transport of YFP-GPI in HeLa cells; assay type: cell-based; conditions: 18 h; 1 ig/ml BFA or 10 iM FLI-06
[9] = system: DND-41 cells; assay: Growth of DND-41 cells (FACS); assay type: cell-based
Experimental: as §4
To test whether FLI-06 would ultimately be useful to treat cancerous diseases we incubated DND-41 cells having a Notch heterodimerization domain that leads to hyperactive Notch signaling (Weng et al, Science, 2004) with FLI-06.

[10] = system: KlothoS; assay: Secretion of KlothoS from transfected HeLa cells; assay type: cell-based; conditions: 18 h
Experimental: Thereafter cells were fixed and analyzed by immunofluorescence microscopy. […] After incubating with compounds for 18 h media were collected, cells lysed and both analyzed by Western Blotting using Klotho antibody. As loading control membranes were probed for actin. […] […] Tunicamycin (Tun) and 5 mM DTT were used as positive controls. […] Shown is the average of three independent experiments, error bars indicate standard deviation.

[11] = system: BIP and ATF6; conditions: human, 24 h
[12] = system: Golgi apparatus; assay: Immunofluorescence of Golgi and early secretory pathway markers in HeLa cells; assay type: cell-based

For `CC1=C(C(=O)OC2CCCCC2)C(c2ccc([N+](=O)[O-])cc2)C2=C(CC(C)(C)CC2=O)N1` (centres unmarked) [FLI-06, Cyclohexyl 4-(4′-nitrophenyl)-2,7,7-trimethyl-5-oxo-1,4,5,6,7,8-hexahydroquinoline-3-carboxylate], the “NICD-EGFP and AICD production in isolated membranes” value (“NICD-EGFP and AICD production” for short) [1] was “did not affect γ-secretase in isolated membranes”, the “distribution of GBF1-GFP” value [2] was “displayed the distribution of control cells” and the “glycosylation of Klotho” value [3] was “aberrant glycosylation”. For the same molecule, the “mature, complex-glycosylated post-Golgi form of Klotho” value [3] was “strongly reduced”, the “shedded Klothos in the medium” value [3] was “strong reduction of Klothos in the medium” and the microtubule network ([4]; 1.5 ig/ml nocodazole or 10 iM FLI-06) was “does not act on the cytoskeleton”. For the same molecule, the “actin polymerization and distribution” value ([4]; 2 iM cytochalasin D or 10 iM FLI-06) was “unaffected”, the “start of ER sheet-formation” value ([5]; 10 μM FLI-06) was 5 to 10 min and the “t1/2 of ER sheet-formation” value ([5]; 10 μM FLI-06) was “about 14 min”. The ER tubule-to-sheets phenotype ([5]; 10 iM, 2 h) was “elicited the tubule-to-sheets phenotype”, the APPCTF in cells [6] was “no APPCTF accumulated” and the “APPs (shedded ectodomain) secretion” value [6] was “abolished the shedding of APPs”. For the same molecule, the “Aβ in the cell supernatant” value [6] was “essentially disappeared”, the “glycosylation pattern of APP” value [6] was “changed the glycosylation pattern of APP” and the “secretion of SEAP” value [7] was “inhibition of secretion of SEAP”. For the same molecule, the “surface transport of YFP-GPI” value [8] was “inhibit surface transport of YFP-GPI”, the “effect on DND-41 cells” value ([9]; 1 μM) was “inhibited proliferation” and the “effect on DND-41 cells” value ([9]; 10 μM) was “total cell death after 4 days”. The “secretion of KlothoS” value [10] was “inhibit secretion of KlothoS”, the “ER-stress (BIP up-regulation, ATF6 luciferase)” value [11] was “only very mild ER-stress after 24 h” and the “Golgi integrity (giantin)” value ([12]; 10 μM, 18 h) was “complete disruption of the Golgi”. For the same molecule, the “time to loss of Golgi-like juxtanuclear βCOP staining” value ([12]; 1 ig/ml BFA or 10 iM FLI-06) was 30 to 40 min, the “distribution of GM130 and TGN46” value ([12]; 10 iM FLI-06 or 1 ig/ml BFA, 18 h) was “dispersal of the cis-Golgi marker GM130 and of the trans-Golgi network (TGN) marker TGN46” and the “hyperglycosylation of VSVG-EGFP” value ([12]; 4 h at 40° C. with cycloheximide) was “did not cause a hyperglycosylation”. For the same molecule, the tubulation of endosomes ([12]; Alexa555-transferrin labelled endosomes) was “did not cause tubulation of endosomes” and the “fusion of ER and Golgi” value ([12]; prlss-KDEL-mRFP and B4GALT-EGFP markers) was “did not lead to fusion of ER and Golgi”.

For `Cn1c2ccccc2c2c(C(=O)N3CCN(Cc4ccc5c(c4)OCO5)CC3)cn(C3CCCC3)c(=O)c21` [FLI-14], the “NICD-EGFP and AICD production” value [1] was “did not affect γ-secretase in isolated membranes”, the APPCTF in cells [6] was “accumulated” and the “Aβ in the cell supernatant” value [6] was “essentially disappeared”.

In the case of `Cc1ccc(NC(=O)C(NS(=O)(=O)c2cccc3nsnc23)C(C)C)nc1` (centres unmarked) [FLI-15], the “NICD-EGFP and AICD production” value [1] was “clearly reduced NICD-EGFP and AICD production”, the APPCTF in cells [6] was “accumulated” and the “Aβ in the cell supernatant” value [6] was “weakly reduced”.

For `CC(C)CC(NC(=O)C(Cc1ccccc1)NC(=O)C1CCCN1C(=O)OCc1ccccc1)C(=O)OC(C)(C)C` (stereo not drawn) [FLI-19] (Cbz-Pro-Phe-Leu-OtBu; configuration not given here), the “NICD-EGFP and AICD production” value [1] was “did not affect γ-secretase in isolated membranes” and the “APPs (shedded ectodomain) secretion” value [6] was “reduced APPs secretion”.

In the case of `CC(=O)Nc1ccc2nc(NC(=O)CC34CC5CC(CC(C5)C3)C4)sc2c1` [FLI-20], the “NICD-EGFP and AICD production” value [1] was “clearly reduced NICD-EGFP and AICD production”, the APPCTF in cells [6] was “accumulated” and the “APPs (shedded ectodomain) secretion” value [6] was “reduced APPs secretion”. The “Aβ in the cell supernatant” value [6] was “weakly reduced”.
